Tests used:
Type in all cases: cell-based
[1] = system: MDA-MB-231 cells; assay: Cell viability by neutral red assay, MDA-MB-231; conditions: for effect on cell viability: single agent, up to 6 days, Thalidomide 0.01-100 μM, CC-4047 and lenalidomide 0.001-10 μM, FIG. 6A
Experimental: (§1) Cells were seeded in 24 wells plates at a density of 10^4 cells per well and allowed to adhere for 24 hours. […] The drug was renewed every 2 days. Cell viability was then determined by neutral red assay, measuring absorbance at 550 nm.
(§2) After 6 days treatment, cells were seeded into 24 well plates at a density of 1×10^4 cells/wells. After 24 h, cells were treated with reagents or vehicle for up to six days. At the end of the incubation period, medium was removed and cells were incubated with neutral red solution (40 μg/ml in phenol red and serum free DMEM) for 2 h at 37° C. After removal of the neutral red solution, wells were rinsed once with 1 ml 4% formal saline containing 0.5% CaCl2. Plates were inverted on paper towel to drain and 200 μl of elution fluid (1% acetic acid in 50% ethanol) was added. Following incubation at room temperature for 30 min with gentle shaking, absorbance at 550 nm was determined
(§3) To accomplish this, cells were treated for up to 6 days with different concentrations of a BCL-2 inhibitor, ABT-263 ([…]). Non-treated cells were used as a control. After 6 days of treatment, cell viability was measured by neutral red assay (FIG. 16). In the three cell lines, BCL-2 inhibition leads to cell death. The IC50 is almost equivalent in all cell lines (1 μM+/−0.2 μM).
(§4) More particularly, FIG. 16 illustrates the effects of BCL-2 inhibition on MCF-7VD^R and HBL-100 viability. MDA-MB-231, MCF-7/VD^R and HBL-100 cells were treated for up to 6 days with different concentrations of ABT-263 (0.2 up to 20 μM). Non-treated cells were used as a control. After 6 days of treatment, cell viability was measured by neutral red assay. Results are mean of three independent experiments (each made in quadruplicate).

[2] = system: MCF-7/VD^R cells; assay: Cell viability by neutral red assay, MCF-7/VD^R; conditions: Homo sapiens, MCF7, 144 h; ABT-263, 6 days, FIG. 16; read-out: IC50 (cell viability / killing)
Source text: (§5) Non-treated cells were used as a control.
as §5

[3] = system: HBL-100 cells; assay: Cell viability by neutral red assay, HBL-100; conditions: Homo sapiens, HBL-100, 144 h; ABT-263, 6 days, FIG. 16; read-out: IC50 (cell viability / killing)
Experimental: as §2
In order to validate the previous results obtained in MDA-MB-231 cells, two other vitamin D resistant cell lines MCF-7/VD^R and HBL-100 cells, were investigated. First the effect of lenalidomide on these cells lines were investigated. To this end, cells were treated for up to 6 days with different concentrations of lenalidomide (0 μM up to 10 μM). Cell viability was measured by neutal red dye assay (FIG. 13).
(§6) More particularly, FIG. 13 illustrates the effects of lenalidomide treatment on MCF-7/VDR and HBL-100 viability. MCF-7/VDR and HBL-100 cells were treated for up to 6 days with different concentrations of lenalidomide (0 μM up to 10 μM). Cell viability was measured by neutral red dye assay. Results are mean of three independent experiments (each made in quadruplicate).
Cell viability was measured by neutral red dye assay (FIG. 14).
as §6, with “14” for “13”, “lenalidomide/1, 25-D3 co-treatment” for “lenalidomide treatment”, “(0.01” for “(0”, “1 μM) alone or in combination with different concentrations of 1, 25-D3 (0 for up to 1000 nM).” for “10 μM).”
as §3, §4

[4] = system: MCF-12A cells; assay: Cell viability by neutral red assay, MCF-12A; conditions: single agent, up to 6 days, Thalidomide 0.01-100 μM, CC-4047 and lenalidomide 0.001-10 μM, FIG. 6A
Experimental: as §1, §2

[5] = system: MCF-7 cells; assay: Cell viability by neutral red assay, MCF-7; conditions: single agent, up to 6 days, Thalidomide 0.01-100 μM, CC-4047 and lenalidomide 0.001-10 μM, FIG. 6A
Experimental: as §1, §2

[6] = system: MCF-12A cells; assay: Cell growth by Sulphorhodamine B (SRB) assay, MCF-12A; conditions: single agent, up to 6 days, Thalidomide 0.01-100 μM, CC-4047 and lenalidomide 0.001-10 μM, FIG. 6B
Experimental: (§7) Cells were seeded in 24 wells plates at a density of 10^4 cells per well and allowed to adhere for 24 hours. […] Each treatment was carried out for up to 7 days, but renewed every 2 days. Cell growth was then determined by Sulphorhodamine B (SRB) assay, measuring absorbance at 550 nm.
(§8) After 6 days treatment, cells were seeded in 24 well plates at a density of 1×10^4 cells/well. After 24 h cells were treated with reagents or vehicle for up to six days. Cells were treated for up to 6 days with log doses of Thalidomide (0.1 μM up to 100 μM), pomalidomide and lenalidomide (0 μM up to 10 μM). At the end of each experiment, cells were fixed to the bottom of the well by addition of ice-cold 50% w/v trichloroacetic acid (TCA) to give a final concentration of 10% TCA. Plates were incubated at 4° C. for 30 minutes and then washed with distilled water. Plates were allowed to air-dry at room temperature before staining with 0.4% w/v SRB in 1% v/v acetic acid and incubated for 15 minutes on a shaker. The plates were then extensively washed with 1% acetic acid to remove unbound dye and were again allowed to air-dry at room temperature. Incorporated dye was solubilised with 200 μl […] Tris base. 100 μl aliquots were transferred to a 96 well plate and absorbance at 550 nm was determined

[7] = system: MCF-7 cells; assay: Cell growth by Sulphorhodamine B (SRB) assay, MCF-7; conditions: single agent, up to 6 days, Thalidomide 0.01-100 μM, CC-4047 and lenalidomide 0.001-10 μM, FIG. 6B
Experimental: as §7, §8

[8] = system: MDA-MB-231 cells; assay: Cell growth by Sulphorhodamine B (SRB) assay, MDA-MB-231
Experimental: (§9) Cells were seeded in 24 wells plates at a density of 10^4 cells per well and allowed to adhere for 24 hours. To determine the combination effects of the drugs, cells were treated with 100 nM 1,25 D3 and 10 nM 1-oxo-2-(2,6-dioxopiperidin-3-yl)-4-aminoisoindoline or 1,3-dioxo-2-(2,6-dioxopiperidin-3-3-yl)-4-aminoisoindoline. Each treatment was carried out for up to 7 days, but renewed every 2 days. Cell growth was then determined by Sulphorhodamine B (SRB) assay, measuring absorbance at 550 nm.
as §9, with “per wekk” for “per well”, “and varying doses of” for “and 10 nM”, “or 1,3-dioxo-2-(2,6-dioxopiperidin-3-yl)-4-aminoisoindoline.” for “or 1,3-dioxo-2-(2,6-dioxopiperidin-3-3-yl)-4-aminoisoindoline.”
as §8

Compound: CC1(C)CCC(c2ccc(Cl)cc2)=C(CN2CCN(c3ccc(C(=O)NS(=O)(=O)c4ccc(N[C@H](CCN5CCOCC5)CSc5ccccc5)c(S(=O)(=O)C(F)(F)F)c4)cc3)CC2)C1 [ABT-263]
- IC50 ([1]; Homo sapiens, MDA-MB-231, 144 h, ABT-263, 6 days, FIG. 16, read-out: IC50 (cell viability / killing)): 1000 nM
- IC50 [2]: 1000 nM
- IC50 [3]: 1000 nM

Compound: Nc1cccc2c1C(=O)N(C1CCC(=O)NC1=O)C2=O (stereo not shown) [Pomalidomide, 1,3-dioxo-2-(2,6-dioxopiperidin-3-yl)-4-aminoisoindoline]
- effect on cell viability [4]: do not Affect
- effect on cell viability [5]: do not Affect
- effect on cell viability [1]: do not Affect
- effect on cell growth [6]: do not Affect
- effect on cell growth [7]: do not Affect
- minimal concentration giving statistically significant inhibition of growth ([8]; in the presence of 100 nM 1,25 D3, up to 7 days, FIG. 3): 0.1 µM
- effect on cell growth ([8]; single agent, 0.001-10 μM, up to 6 days): no effects

Compound: O=C1CCC(N2C(=O)c3ccccc3C2=O)C(=O)N1 (stereo not shown) [Thalidomide]
- effect on cell viability [4]: do not Affect
- effect on cell viability [5]: do not Affect
- effect on cell viability [1]: do not Affect
- effect on cell growth [6]: do not Affect
- effect on cell growth [7]: do not Affect
- inhibition at 100 µM ([8]; Homo sapiens, MDA-MB-231, 144 h, single agent, 100 μM Thalidomide (highest dose), up to 6 days): 20%
